Experimental data: patent US20200247815A1, “PYRAZOLYL-CONTAINING TRICYCLIC DERIVATIVE, PREPARATION METHOD THEREFOR AND USE THEREOF” (Jiangsu Hansoh Pharmaceutical Group Co., Ltd., priority 2017, published 2020)
pIC50: −log10 of the molar value.

How the values were obtained:
[1] = tested on: human pancreatic cancer cell MiaPaca 2 xenograft (CDX) model; assay: Tumor inhibition experiment in MiaPaca 2 xenograft model; assay type: in vivo, BALB/c nude mice
Protocol: BALB/c nude mice were used as test animals. In vivo pharmacodynamic test was carried out in human pancreatic cancer cell MiaPaca 2 xenograft (CDX) model to evaluate the antitumor effect of the test compound.
MiaPaca 2 cells were obtained from the cell bank. After recovery, the cells were added to a DMEM medium (containing 10% FBS, 1% Glu and 1% P/S), and incubated in the CO2 incubator (the incubator temperature was 37° C., and the CO2 concentration was 5%). The cells were subjected to passage after spreading 80-90% of the bottom of the culture flask. After passage, the cells were incubated in the CO2 incubator. This process was repeated until the number of cells met the required by in vivo pharmacological inoculation. Cells in log phase were collected, and counted by the automatic cell counter. The cells were re-suspended with PBS and Matrigel (1:1 by volume) based on the counting results to obtain a cell suspension (cell density: […]), which was placed in an ice box.
Female BALB/c nude mice (6-8 weeks old, body weight: 18-22 grams) were used as test animals. The mice were maintained in individually ventilated cages (5 mice per cage) in a special pathogen-free environment. All cages, padding and water were disinfected before use. All animals had free access to standard certified commercial laboratory diets. The nude mice were labeled with disposable ear tags before the experiment. The skin of the inoculated area was sterilized with 75% medical alcohol before inoculation. Each mouse was subcutaneously inoculated with 0.1 ml (containing 8*10^6 cells) of MiaPaca 2 tumor cells on the right back. Administration was started when the average tumor volume reached 100-200 mm^3. The test compound was administrated intragastrically daily. The tumor volume (mm^3) was measured with vernier caliper twice a week. Calculation formula: V=0.5*D*d*d, wherein D and d refer to the major and minor diameter of the tumor, respectively. The anti-tumor efficacy was determined by dividing the average tumor increase volume of compound-treated animals by the average tumor increase volume of untreated animals. Calculation formula of tumor inhibition rate: TGI (%)=1−[(Vt−V0)administration group/(Vt−V0)solvent control group]*100%. All animals were euthanized after the experiment.

[2] = molecular target: T1, ERK-1 kinase (Homo sapiens, UniProt P27361); assay: Inhibition of ERK-1 kinase activity (LANCE Ultra TR-FRET); assay type: biochemical; details: ERK1 enzyme 0.4 nM, ATP 38.15 μM
T1 construct: purchased Invitrogen PV3311
T1 sequence (P27361 whole entry): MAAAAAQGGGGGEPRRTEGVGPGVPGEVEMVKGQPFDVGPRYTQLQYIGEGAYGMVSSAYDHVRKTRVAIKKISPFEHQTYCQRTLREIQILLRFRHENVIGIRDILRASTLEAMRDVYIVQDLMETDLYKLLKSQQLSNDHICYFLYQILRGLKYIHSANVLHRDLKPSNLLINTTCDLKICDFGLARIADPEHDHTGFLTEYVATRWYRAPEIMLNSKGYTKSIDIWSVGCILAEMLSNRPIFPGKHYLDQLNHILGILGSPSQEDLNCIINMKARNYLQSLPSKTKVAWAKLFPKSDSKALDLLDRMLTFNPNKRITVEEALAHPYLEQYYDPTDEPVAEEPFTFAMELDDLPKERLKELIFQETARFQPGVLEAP
Summary of the method: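 Reactions contained 0.4 nM ERK1, 0.5 μM Ulight-MBP peptide and 38.15 μM ATP in pH 7.4 Hepes/MgCl2 buffer with 4% DMSO and ran 60 minutes at room temperature. Detection used Eu-anti-p-MBP with a 665/615 nm TR-FRET ratio, normalised to DMSO and no-enzyme controls. Final concentrations were 100 nM to 0.005 nM, and IC50 came from a 4-parameter fit.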

[3] = Solubility (statement, no method); assay type: physicochemical
[4] = Pharmacokinetics assay in mice (oral, plasma); assay type: in vivo, Balb/c Mouse; details: for Exposure in mouse plasma: dose of 50 mg/kg, oral; for Cmax / MRT / Tmax / half-life / AUC(0-t): mouse, male Balb/c mice, PO 50 mg/kg, plasma; for AUC(0-t): read-out: AUC0-24
Protocol: Balb/c Mouse was used as the test animal. The pharmacokinetic behavior of compounds of Example 1, 2 and 7 administrated orally was studied in mice (plasma).
170 g of PEG400 and 20 g of Solutol HS-15 were added to a 250 mL glass flask, and then 10 mL of NMP was added. The solution was mixed well by ultrasound for 10 minutes to obtain a clear solution.
11.2 mg of the compound of Example 1, 10.8 mg of the compound of Example 2 and 9.8 mg of the compound of Example 7 were weighted to a 4 mL glass flasks respectively, […], 2.160 mL and […] of the above solution were treated by ultrasound for 10 minutes to obtain a colorless clear solution with a concentration of 5 mg/mL.
After fasting overnight, the male Balb/c mice were administrated with the compounds (PO), the dose was 50 mg/kg, and the administration volume was 10 mL/kg.
Blood was taken before administration and at 0.25, 0.5, 1, 2, 4, 6, 8 and 24 hours after administration. The blood samples were stored in EDTA-2K tubes, and centrifuged for 6 minutes to separate the blood plasma. The plasma samples were stored at −80° C.

[5] = 50 mg/kg QD × 16 d, intragastric, Day 16
[6] = 50 mg/kg BID × 3 w, intragastric
[7] = 100 mg/kg QD × 3 w, intragastric

Row | pIC50 [2] | Solubility compared with ERK compounds of the prior art [3] | Exposure in mouse plasma [4] | Cmax [4] | MRT [4] | Tmax [4] | half-life [4] | AUC(0-t) [4] | Structure (SMILES) | also measured
1 | 9.54 | higher solubility | good exposure | 1310 ng/mL | 8.99 h | 0.5 h | 6.59 h | 14700 ng·h/mL | C[C@@H](NC(=O)c1cc2cc3c(-c4ccncc4)n[nH]c3cc2[nH]1)c1ccccc1 [Example 1, (R)—N-(1-phenylethyl)-3-(pyridin-4-yl)-1,7-dihydropyrrolo[3,2-f]indazole-6-carboxamide] | Tumor volume (Mean ± SD) Day 0 ([1]; 50 mg/kg QD × 16 d, intragastric): 154 ± 29 mm^3; TGI Day 16 [1, 5]: 86.63%; Tumor volume (Mean ± SD) Day 16 [1, 5]: 214 ± 97 mm^3; ΔT/ΔC Day 16 [1, 5]: 13.37%; Inhibition of growth of xenograft ([1]; 50 mg/kg QD, continuous oral administration for 16 days): significantly inhibit the growth
2 | 9.38 | higher solubility | good exposure | 15900 ng/mL | 2.44 h | 2 h | 0.82 h | 50400 ng·h/mL | C[C@@H](NC(=O)c1nc2cc3c(-c4ccncc4)n[nH]c3cc2[nH]1)c1ccccc1 [Example 2, (R)—N-(1-phenylethyl)-3-(pyridin-4-yl)-1,7-dihydroimidazo[4,5-f]indazole-6-carboxamide] | Tumor volume (Mean ± SD) Day 0 [1, 6]: 156 ± 27 mm^3; TGI Day 21 [1, 6]: 85.07%; Tumor volume (Mean ± SD) Day 21 [1, 6]: 253 ± 32 mm^3; ΔT/ΔC Day 21 [1, 6]: 14.93%; Inhibition of growth of xenograft ([1]; 50 mg/kg BID, continuous oral administration for 21 days): significantly inhibit the growth; Tumor volume (Mean ± SD) Day 0 [1, 7]: 156 ± 24 mm^3; TGI Day 21 [1, 7]: 91.14%; Tumor volume (Mean ± SD) Day 21 [1, 7]: 214 ± 104 mm^3; ΔT/ΔC Day 21 [1, 7]: 8.86%; Inhibition of growth of xenograft ([1]; 100 mg/kg QD, continuous oral administration for 21 days): significantly inhibit the growth
